Legend:
VSMC-E1A = assay: Intracellular Na+ and K+ content in VSMC-E1A; assay type: cell-based, rat; conditions: for Intracellular cations K^+i / Intracellular cations Na^+i: ouabain-treated VSMC-E1A, 1 mM, 6 hours
Protocol: FIG. 1. Kinetics of modulation of intracellular Na^+ (1, 2) and K^+ (3, 4) content by ouabain in VSMC-E1A (1, 3) and Jurkat cells (2, 4). Cells were preincubated for 24 hours in the presence of 10% calf serum in control medium consisting of 91 mM NaCl, 5 mM KCl, 0.9 mM NaH2PO4, 44 mM NaHCO3, 1.8 mM CaCl2, 0.8 mM MgCl2, 33 mM HEPES and 5 mM D-glucose (pH 7.4) with 2 μCi/ml of ^22Na or 0.5 μCi/ml ^86Rb, and 1 mM ouabain was added at the time interval indicated by the arrow. At specific time-points, intracellular Na^+ and K content + was measured as described in Experimental Procedures. Mean values±S.E. obtained in experiments performed in quadruplicate (VSMC-E1A) or triplicate (Jurkat cells) are given.
To estimate chromatin cleavage, cells were incubated for 1 hr in the presence of 10% calf serum (CS) in the control solution (DMEM, [Na^+]=137 mM; [K^+]=5 mM—line 1) or under equimolar substitution of NaCl by KCl ([Na^+]=14 mM; [K^+]=128 mM—line 2) with or without 1 mM ouabain and then for an additional 6 hours in the same media with or without CS. Intracellular Na^+ and K^+ content was measured as steady-state distribution of isotopes after 24 hours preincubation of cells in control Na^+-enriched solution containing 0.5 μCi/ml ^86Rb or 2 μCilml ^22Na, and additional 6 hours incubation in Na^+—(line 1) or K^+—(line 2) enriched medium, containing 10% CS and isotopes with the same specific activity with or without 1 mM ouabain. For more details see Experimental Procedures. Mean values±S.E. obtained in 3 experiments performed in triplicate (ion content) or quadruplicate (chromatin cleavage) are given. ★p<0.001 compared to ouabain-untreated cells.
Intracellular Na^+ and K^+ content. The intracellular content of exchangeable Na^+ and K^+ was measured as steady-state distribution of extra- and intracellular ^22Na and ^86Rb, as described previously in detail (22). Briefly, to establish the steady-state distribution of isotopes, VSMC growing in 12× (^22Na) or 24× (^86Rb) well plates or ˜10^6 Jurkat cells in suspension were preincubated for 24 hours in DMEM containing 10% calf serum and 0.5 μCi/ml ^86RbCl or 2 μCi/ml ^22NaCl and then treated in media with compositions shown in FIG. 1 and Tables 3 and 4 and with the same specific radioactivity. At the end of incubation, the VSMC were transferred on ice, washed 4 times with 2 ml of ice-cold medium W, containing 100 mM MgCl2 and 10 mM HEPES-tris buffer (pH 7.4), and lysed with SDS/EDTA mixture. One ml of Jurkat cell suspension was applied on a Whatman type C filter with the cells being washed with 3×5 ml aliquots of ice-cold medium W under negative pressure of 20-30 mm Hg. Radioactivity of the incubation medium and cell lysate was measured with a liquid scintillation analyzer and intracellular cation content was determined as A/am, where A was the radioactivity of the samples (cpm), a was the specific radioactivity of Na^+ and K^+(^86Rb) in the medium (cpm/nmol), and m was the protein content determined by Lowry methods.

VSMC = assay: ATP content in VSMC; conditions: 8 hours incubation with ouabain, data not shown

C[C@@H]1O[C@@H](O[C@H]2C[C@@H](O)[C@]3(CO)[C@H]4[C@H](O)C[C@]5(C)[C@@H](C6=CC(=O)OC6)CC[C@]5(O)[C@@H]4CC[C@]3(O)C2)[C@H](O)[C@H](O)[C@H]1O [Ouabain, 1β,3β,5,11α,14,19-hexahydroxycard 20 [22]-enolide 3-[6-deoxy-α-L-mannopyrano-sidel]]
intracellular Na^+ content (VSMC-E1A; VSMC-E1A, after 2 hours of 1 mM ouabain (from 38±8)): 283±30 nmol/mg proteins | K^+i content (VSMC-E1A; VSMC-E1A, after 2 hours of 1 mM ouabain (from 405±41)): 131±19 nmol/mg proteins | Na^+i and K^+i content on prolongation of incubation (VSMC-E1A; VSMC-E1A, ouabain for up to 5 hours versus 2 hours): did not significantly modify | Intracellular cations K^+i (VSMC-E1A; medium [Na+]o=14, [K+]o=128 mM): 293 nmol/mg prot | Intracellular cations Na^+i (VSMC-E1A; medium [Na+]o=14, [K+]o=128 mM): 51 nmol/mg prot | Intracellular cations K^+i (VSMC-E1A; medium [Na+]o=137, [K+]o=5 mM): 99 nmol/mg prot | Intracellular cations Na^+i (VSMC-E1A; medium [Na+]o=137, [K+]o=5 mM): 312 nmol/mg prot | ATP content (VSMC): did not observe any significant effect
